Test results reported in US20190290474A1, “DRUG RELEASE DEVICE AND USE” (JUROX PTY LTD, priority 2016, published 2019).

Tests used:
[1] = Example 13: progesterone dissolution from cut devices in 250 mL acetone, HPLC/UV; format: physicochemical; details: individual device
Description: The combined mass of each reagent bottle and solid contents was recorded (Mi) and each bottle was then charged with 250 mL of acetone. Reagent bottles were heated to 35° C. in a temperature controlled water bath and stirred using a submersible multipoint stirrer plate.
Reagent bottles were removed from the water bath at times 2, 4.5 and 47.5 hours after the commencement of stirring. All residual water from the temperature controlled water bath was removed from the outside of the container. The total mass of the dissolution vessel, drug product and drug product solution was then recorded (Mf) and the reagent bottles were left at ambient temperature. The initial mass (of components prior to solvent addition) was subtracted from the final mass to give the solvent mass at each time point.
The temperature of each solution of device extracts was recorded at 2.5, 5 and 48 hours after stirring commenced and a 2 mL aliquot of solution was sampled immediately following the temperature reading. The aliquot of extracts were diluted in 100 mL of 50:50 acetonitrile/water and a sample of the diluted solution was filtered into HPLC vials
The mass of solvent was converted to its corresponding volume using the literature density of acetone and equation below.
A progesterone dissolution profile and final content for each implant was be obtained using a HPLC/UV method for progesterone quantification in IVD and CIDR

[2] = aqueous pH 7 buffer; cited from earlier work

SMILES: CC(=O)[C@H]1CC[C@H]2[C@@H]3CCC4=CC(=O)CC[C@]4(C)[C@H]3CC[C@]12C [Progesterone]
- Dissolution of progesterone, percentage of the dose concentration (1.38 g) ([1]; 2.5 Hours): 100.8%
- Dissolution of progesterone, percentage of the dose concentration (1.38 g) ([1]; 5 Hours): 104.1%
- Dissolution of progesterone, percentage of the dose concentration (1.38 g) ([1]; 48 Hours): 103.2%
- solubility of progesterone [2]: < 0.1 g/L
